# Results published in patent US8623832B2, “Peptide compositions that bind TLR-4” (The Board of Regents of the University of Oklahoma, priority 2011, dated 2014).
# B1: MD2: recombinant human MD-2 protein, adaptor molecule for TLR4 (R&D Systems) (protein, listed as Homo sapiens)
# chain: MLPFLFFSTLFSSIFTEAQKQYWVCNSSDASISYTYCDKMQYPISINVNPCIELKGSKGLLHIFYIPRRDLKQLYFNLYITVNTMNLPKRKEVICRGSDDDYSFCRALKGETVNTTISFSFKGIKFSKGKYKCVVEAISGSPEEMLFCLEFVILHQPNSN
# What was measured:
# JAWS II dendritic cells = test: LPS-induced TNF-α release by JAWS II dendritic cells (ELISA); format: cell-based, mouse; conditions: for LPS-induced TNF-α, mean values: post-LPS model; for LPS-induced TNF-α secretion, pre-LPS model: peptide 1 or 10 μM 1 hour prior to LPS 75 ng/ml, total 5 hours
# Protocol: JAWS II dendritic cell culture: The JAWS II dendritic cell line is an immortalized cell line derived from bone marrow of C57BL/6 mice (ATCC, Manassas, Va.). The cells were maintained in Alpha-modified minimum essential medium (Sigma, St Louis, Mo.) supplemented with 20% fetal bovine serum (FBS), 4 mM L-glutamine, 100 U/ml penicillin, 100 μg/ml streptomycin, 50 μg/ml gentamicin (Invitrogen, Grand Island, N.Y.) and 5 ng/ml of recombinant murine granulocyte macrophage-colony stimulating factor (Peprotech, Rocky Hill, N.J.). (Awasthi et al., 2005). The culture medium was replaced with fresh medium every 48 h.
# The JAWS II dendritic cells (1 million) were treated with SP-A peptides (1 or 10 μM) with or without E. coli derived LPS (75 ng/ml, highly purified, low protein, Calbiochem, CA). In order to observe the anti-inflammatory properties of the SP-A peptides, the cells were treated with peptides for 1 hour prior to addition of LPS (pre-LPS treatment) or after 4 hours incubation with LPS (Post-LPS treatment). The incubation was continued for a total period of 5 hours. Control cells were treated with vehicle, LPS (75 ng/ml), and/or SP-A peptides (1 and 10 μM) for a period of 5 hours. The cell-free supernatants were collected and stored at −80° C. for further analysis.
# Cytokine (TNF-α) measurement: The TNF-α levels were measured in cell-free supernatants of JAWS II dendritic cells treated with LPS with or without SP-A peptides by enzyme linked immunosorbent assay (ELISA) as described earlier (Awasthi and Cox, 2003).
# [1] = tested on: primary adult baboon lung DCs and fetal baboon lung DC-precursor cells; test: TNF-α secretion against E. coli by baboon lung DCs (ELISA); format: cell-based; conditions: 3 hours phagocytosis reaction; protein added alone
# Protocol: After confirming that the fluorescence is of phagocytosed bioparticles, comprehensive experiments were performed in presence and absence of effector molecules (SP-A and TLR4-MD2 proteins). The cells were pulsed with purified, native baboon lung SP-A and recombinant human TLR4-MD2 or MD2 proteins (RnD Systems, MN) for an hour prior to phagocytosis assay with pHrodo-conjugated, heat-killed E. coli K12 bioparticles (Invitrogen-Molecular Probes, CA). MD2 protein was also included, because SP-A is known to interact with MD2, and it was questioned if MD2 can influence the immune functions of DC-population. The assay was performed in serum-free Opti-MEM medium (Invitrogen, CA), as described by the manufacturer (Invitrogen-Molecular Probes, CA). The assay mixtures were incubated for another 3 hours at 37° C. in 5% CO2 incubator. The fluorescence readings were taken at 550 nm excitation and 600 nm emission wavelengths using SpectraMax M2 spectrofluorometer (Molecular Devices, CA).
# Cytokine (TNF-α) measurement: The TNF-α levels were measured in cell-free supernatants by enzyme linked immunosorbent assay (ELISA) using a commercially available kit (eBioscience, CA), as per the manufacturer's instructions. Briefly, the microwells of a 96 well plate were coated with diluted purified anti-human TNF-α antibody. The wells were washed, and nonspecific sites were blocked. Diluted recombinant human TNF-α (7.8-500 pg/ml standard) and cell-free-supernatant (1:10) were added to the antibody-coated wells, and the plate was incubated overnight at 4° C. The next day, the plate was washed and incubated with biotin-conjugated anti-human TNF-α antibody followed by avidin-horseradish peroxidase and substrate solution. The reaction was stopped by adding 2 N H2SO4 and read at 450 nm (Molecular Devices, CA).
# [2] = tested on: primary adult baboon lung DCs and fetal baboon lung DC-precursor cells; test: Phagocytosis of pHrodo-labeled E. coli bioparticles by primary baboon lung DCs / fetal DC-precursor cells; format: cell-based; conditions: SP-A 2 μM, TLR4-MD2 0.3 μM
# Protocol: Freshly collected lobe of the lung or whole lung samples of adult and fetal baboons were transported on ice in RPMI 1640 medium containing 2 mM glutamine, 1 mM HEPES, 10 μg/ml gentamicin, 100 U/ml penicillin, 100 μg/ml streptomycin and 10% FBS. After a mild mechanical disruption, the single cell suspension was seeded in a tissue culture flask (Nalge-Nunc International Corp, NY) at a density of 30-50×10^6 leukocytes/175 cm^2 flask in RPMI 1640 medium containing 2 mM glutamine, 1 mM HEPES, 10 μg/ml gentamicin, 100 U/ml penicillin, 100 μg/ml streptomycin and 10% FBS. The light-density DC-populations were harvested using OptiPrep cell-separation solution (density 1.32 g/ml, Accurate Chemicals, NY) (Awasthi and Cooper, 2006; Awasthi et al., 2009). The immunophenotype and basic characteristics of the lung DC-population isolated from fetal and adult baboons have been described earlier (Awasthi et al., 2009). Here, first the immunophenotype of KG-1-derived DCs and fetal baboon lung DC-precursors or adult baboon lung DCs were compared by flow cytometry. Briefly, cells were suspended in Dulbecco's phosphate buffered saline (DPBS) containing 1% FBS and 0.09% sodium azide and incubated with fluorochrome-conjugated antibodies to HLA-DP, DQ, DR, CD11c, CD40, CD80, CD86 (typical DC-markers) as described earlier.
# (§1) After confirming that the fluorescence is of phagocytosed bioparticles, comprehensive experiments were performed in presence and absence of effector molecules (SP-A and TLR4-MD2 proteins). […] The fluorescence readings were taken at 550 nm excitation and 600 nm emission wavelengths using SpectraMax M2 spectrofluorometer (Molecular Devices, CA).
# (§2) The phagocytosis index was calculated by subtracting the average fluorescence intensity of the reaction with bioparticles alone from the control (basal without any effector molecules) and experimental wells. Finally, the percent effect was calculated using the following formula: % effect=(Net experimental phagocytosis/Net basal phagocytosis)×100%
# KG-1-derived DCs = test: Phagocytosis of pHrodo-labeled E. coli bioparticles by KG-1-derived DCs; format: cell-based, human; conditions: MD2 alone 0.02-0.2 μM
# Description: Phagocytosis assay: In this Example, pHrodo-conjugated, heat-killed E. coli K12 (encapsulated) bioparticles (Invitrogen-Molecular Probes, CA) were employed. The pHrodo-fluorescent label offers an advantage over other conventional methods, in that it fluoresces only in acidic conditions (i.e., after the bioparticles are taken inside the intracellular lysosomes) (Invitrogen-Molecular Probes, CA). To ensure that the fluorescence relates to phagocytosed pHrodo-conjugated E. coli bioparticles only, the phagocytosis reaction mix was imaged by confocal microscopy. […]
# as §1, §2
molecule,measurement,setting,value
SPA5: 20-mer synthetic peptide from C-terminal CRD of human SP-A; contains the first 10 amino acids of the SPA4 peptide (YVGLTEGPSPGDFRYSDGTP; listed as Homo sapiens),"secretion of TNF-α, post-LPS model","JAWS II dendritic cells; peptide added after 4 hours LPS 75 ng/ml, both 1 and 10 μM",inhibited the secretion of TNF-α
same,"LPS-induced TNF-α, mean values",JAWS II dendritic cells; 1 μM peptide,8284 pg/mL
same,"LPS-induced TNF-α, mean values",JAWS II dendritic cells; 10 μM peptide,6319 pg/mL
SPA7: 20-mer synthetic peptide derived from the C-terminal Carbohydrate Recognition Domain of human SP-A (SLQGSIMTVGEKVFSSNGQS; listed as Homo sapiens),"LPS-induced TNF-α secretion, pre-LPS model",JAWS II dendritic cells,slight increase
SPA2: 20-mer synthetic peptide derived from the C-terminal Carbohydrate Recognition Domain of human SP-A (PAGRGKEQCVEMYTDGQWND; listed as Homo sapiens),"LPS-induced TNF-α secretion, pre-LPS model",JAWS II dendritic cells,slight increase
TLR4-MD2: soluble mixture of recombinant human TLR4 extracellular domain and MD2 proteins (R&D Systems) [reference compound],secretion of TNF-α by DCs in response to E. coli,[1],increased the TNF-α secretion significantly
same,phagocytic uptake of E. coli,[2],increased
SPA3: 20-mer synthetic peptide derived from the C-terminal Carbohydrate Recognition Domain of human SP-A (VNYTNWYRGEPAGRGKEQCV; listed as Homo sapiens),"LPS-induced TNF-α secretion, pre-LPS model",JAWS II dendritic cells,slight increase
B1,effect on phagocytosis of E. coli bioparticles,KG-1-derived DCs,did not affect the phagocytosis
